Assay results taken from paper PMC9867533, “A New Anticancer Semisynthetic Theobromine Derivative Targeting EGFR Protein: CADDD Study” (Life, 2023).

Target: EGFR^WT (Homo sapiens, UniProt P00533)
Test: in vitro EGFR kinase inhibition assay (human EGFR ELISA kit)
Assay type: biochemical

Chain of EGFR^WT (P00533 25-1210): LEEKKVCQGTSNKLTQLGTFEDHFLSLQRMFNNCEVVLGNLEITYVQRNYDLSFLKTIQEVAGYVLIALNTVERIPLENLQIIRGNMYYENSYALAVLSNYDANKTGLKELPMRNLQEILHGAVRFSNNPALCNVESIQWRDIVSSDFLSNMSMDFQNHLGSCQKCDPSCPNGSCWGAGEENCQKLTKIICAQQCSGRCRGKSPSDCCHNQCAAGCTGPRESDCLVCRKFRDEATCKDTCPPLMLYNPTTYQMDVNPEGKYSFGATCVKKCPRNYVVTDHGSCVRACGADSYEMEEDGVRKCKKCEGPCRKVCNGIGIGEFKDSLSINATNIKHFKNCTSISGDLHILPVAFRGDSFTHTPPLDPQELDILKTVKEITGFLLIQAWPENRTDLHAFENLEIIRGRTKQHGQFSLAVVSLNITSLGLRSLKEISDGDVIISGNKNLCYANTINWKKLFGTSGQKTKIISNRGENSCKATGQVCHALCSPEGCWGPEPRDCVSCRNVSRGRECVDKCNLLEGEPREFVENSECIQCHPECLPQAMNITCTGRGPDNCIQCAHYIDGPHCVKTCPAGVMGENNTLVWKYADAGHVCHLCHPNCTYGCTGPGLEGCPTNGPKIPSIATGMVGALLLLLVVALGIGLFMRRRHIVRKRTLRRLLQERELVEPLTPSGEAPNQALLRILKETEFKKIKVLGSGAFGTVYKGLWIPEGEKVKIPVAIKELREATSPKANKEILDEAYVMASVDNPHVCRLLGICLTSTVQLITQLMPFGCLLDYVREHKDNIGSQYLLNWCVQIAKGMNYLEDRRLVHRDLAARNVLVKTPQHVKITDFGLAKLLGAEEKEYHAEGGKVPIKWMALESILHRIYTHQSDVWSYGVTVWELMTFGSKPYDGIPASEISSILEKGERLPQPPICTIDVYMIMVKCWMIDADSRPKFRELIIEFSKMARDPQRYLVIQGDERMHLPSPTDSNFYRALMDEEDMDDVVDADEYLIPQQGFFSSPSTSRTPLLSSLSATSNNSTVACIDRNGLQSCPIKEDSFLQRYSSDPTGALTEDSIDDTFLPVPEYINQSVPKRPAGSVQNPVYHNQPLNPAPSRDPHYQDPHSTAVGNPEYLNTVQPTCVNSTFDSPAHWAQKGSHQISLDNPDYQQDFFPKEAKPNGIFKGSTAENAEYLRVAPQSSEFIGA

IC50: 25.4 nM
Structure (SMILES): Cn1cnc2c1c(=O)n(CC(=O)Nc1ccc(Cl)cc1)c(=O)n2C [T-1-PCPA, N-(4-Chlorophenyl)-2-(3,7-dimethyl-2,6-dioxo-2,3,6,7-tetrahydro-1H-purin-1-yl)acetamide]
